Laboratory results published in PubChem BioAssay (NCI).
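How tested: cells in 96-well plates exposed to compound for 48 hours at five concentrations. GI50 marks 50% less growth. The concentration for full growth arrest is given as TGI.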

How the values were obtained:
Experiment in all cases: NCI tumour cell line growth inhibition, 48 h
[1] = system: OVCAR-5 ovarian
[2] = system: NCI-H23 lung
[3] = system: HCT-116 colon
[4] = system: CAKI-1 renal
[5] = system: SK-MEL-28 melanoma
[6] = system: HCC-2998 colon
[7] = system: RPMI-8226 leukemia
[8] = system: NCI-H460 lung
[9] = system: SK-OV-3 ovarian
[10] = system: EKVX NSCLC

| Compound | GI50 [1] [µM] | TGI [1] [µM] | GI50 [2] [µM] | TGI [2] [µM] | GI50 [3] [µM] | TGI [3] [µM] | GI50 [4] [µM] | TGI [4] [µM] | GI50 [5] [µM] | TGI [5] [µM] | GI50 [6] [µM] | TGI [6] [µM] | GI50 [7] [µM] | TGI [7] [µM] | GI50 [8] [µM] | TGI [8] [µM] | GI50 [9] [µM] | TGI [9] [µM] | TGI [10] [µM] | GI50 [10] [µM] |
| --- | --- | --- | --- | --- | --- | --- | --- | --- | --- | --- | --- | --- | --- | --- | --- | --- | --- | --- | --- | --- |
| O=C1Nc2cc(-c3ccc(O)cc3)ccc2/C1=C/c1ccc[nH]1 | 0.588 | > 25 | 0.0859 | 2.81 | 0.115 | > 100 | 0.0435 | 3.59 | 0.402 | > 100 | 0.511 | > 100 | 0.486 | > 20.3 |  |  |  |  |  |  |
| Nc1ncc(-c2ccc3ncnc(N4CCc5cc(F)c(Cl)cc54)c3c2)cc1C(F)(F)F | 1.23 | > 100 | 2.93 | > 100 | 2.08 | > 100 |  |  | 2.04 | > 100 | 2.13 | > 100 | 2.33 | > 100 | 1.39 | > 100 | 2.15 | > 100 |  |  |
| COc1ccc(/C=C\c2cc(OC)c(OC)c(OC)c2)cc1N/C=C\C(=O)c1c[nH]c2ccccc12 | < 0.01 | > 100 | < 0.01 | > 100 | < 0.01 | 10.4 | < 0.01 | > 100 | 1.59 | > 100 | < 0.01 | > 100 | < 0.01 | 19.6 | < 0.01 | 20.3 | < 0.01 | > 100 |  |  |
| COC(=O)C1OC(SCCN)C(O)C(O)C1O (stereo not drawn) |  | > 100 |  | > 100 |  | > 100 |  | > 100 |  | > 100 |  |  |  | > 100 |  | > 100 |  | > 100 | > 100 |  |
| CCCCCC/C=C\CCCCCCCCCc1cccc(OC)c1O |  | > 100 |  | > 100 |  | > 100 |  | > 100 |  | > 100 |  |  |  | > 100 |  |  |  | > 100 | > 100 |  |
| Clc1ccc2c(NCCNc3nc(N4CCCCC4)nc4ccccc34)ccnc2c1 | 2.68 | 10.1 | 4.07 | 18.4 | 0.441 | 1.63 |  |  | 1.86 | 3.52 | 2.22 | 6.26 |  |  |  |  | 2.58 | 7.64 | 17.2 | 4.07 |
| CC(C)(C)c1cc(C#N)c2c(c1)C(=O)OC2(c1ccccc1)c1ccccc1C#N (stereo not drawn) |  | > 100 |  | > 100 |  | > 100 |  | > 100 |  | > 100 |  |  |  |  |  | > 100 |  | > 100 | > 100 |  |
| C=CCC(O)c1cc(OC)ccc1OC (stereo not drawn) |  | > 100 |  |  |  |  |  | > 100 |  | > 100 |  | > 100 |  | > 100 |  | > 100 |  | > 100 | > 100 |  |
| O=C(Oc1c(Cl)c(Cl)c(Cl)c(Cl)c1Cl)C1CCCN1C(=O)OCc1ccccc1 (stereo not drawn) | 4.28 | 17.1 | 3.17 | 10.1 | 3.43 | 10.7 | 2.8 | 8.52 | 7.45 | 22.1 | 4.36 | 14.9 | 2.45 | 6.83 | 3.29 | 10.6 | 3.15 | 9.07 |  |  |
| C#CCn1c2c(c3ccccc3c1=O)C(=O)c1ccccc1-2 |  | > 100 |  | 40.4 |  | > 100 |  | 24.3 |  | > 100 |  |  |  | > 100 |  |  |  | 73.1 | 58.8 |  |
| Nc1ncnc2c1N=CN(Oc1ccccc1)N2 |  | > 100 |  | > 100 |  | > 100 |  | > 100 |  | > 100 |  |  |  | > 100 |  | > 100 |  | > 100 | > 100 |  |
| [N-]=[N+]=Nc1nnc(CCCCc2nnc(N=[N+]=[N-])o2)o1 |  | > 100 |  | > 100 |  | > 100 |  |  |  | > 100 |  | > 100 |  |  |  | > 100 |  | > 100 | > 100 |  |
| OCC(O)C(OC1OC(CO)C(O)C(O)C1O)c1nn(-c2ccc(Cl)cc2)c2nc3cc(Cl)c(Cl)cc3nc12 (stereo not drawn) |  | > 100 |  | > 100 |  | > 100 |  |  |  | > 100 |  | > 100 |  | > 100 |  | > 100 |  | > 100 | > 100 |  |
| O=c1c2cc(Br)ccc2n(C2OC(CO)C(O)C(O)C2O)c(=S)n1-c1ccccc1 (stereo not drawn) |  | > 100 |  | > 100 |  | > 100 |  |  |  | > 100 |  | > 100 |  | > 100 |  | > 100 |  |  | > 100 |  |
| CCN1C(=O)N[C@H]2[C@@H]3NC(=O)c4ccc(Cl)n4[C@@H]3C[C@]21O |  |  | 0.531 | 4.52 | 0.397 | 8.32 | 2.87 | > 100 | 0.311 | 3.03 | 0.607 | 4.79 | 0.363 | 2.08 | 0.395 | 16.6 | 2.07 | 7.56 | 6.89 | 1.27 |
| CCSc1nnc(-c2ccc3ccccc3c2O)n1-c1ccccc1 |  |  | > 100 | > 100 |  |  |  |  | > 100 | > 100 | > 100 | > 100 |  |  | 3.25 | > 100 | > 100 | > 100 |  |  |
| CC(C)(C)[Si](C)(C)O/N=C\c1cccc(O[Si](C)(C)C(C)(C)C)c1 |  | 35 |  |  |  | 34.1 |  | 42.2 |  |  |  | 34.7 |  | 37.4 |  | 32.6 |  | 36.2 | 36.9 |  |
| COC(=O)c1ccc(N/C=C(/C#N)c2ccsc2)cc1 |  | > 100 |  | 24.5 |  | 21.8 |  | 30.5 |  | 45.6 |  | 44.5 |  | > 100 |  | > 100 |  |  | 31.4 |  |
| COc1ccc(C2C(C(=O)O)=C(CO)Oc3cc4c(cc32)OCO4)c(OC)c1 (stereo not drawn) |  |  |  | > 100 |  | > 100 |  | > 100 |  | > 100 |  |  |  | > 100 |  | > 100 |  | > 100 | > 100 |  |
